# Test results as given in patent US20250296971A1, “GASTRIC INHIBITORY PEPTIDE RECEPTOR LIGANDS” (priority 2021, published 2025).
# *1 amine or outer side, *2 acyl side, *3 side chain or, on linkers, in order; H or OH if unused. Where a SMILES comes first, the peptide text is derived from it. Bridges are numbered along the chain shown (N, C = ends). [ ]: non-standard residue; d: D form. The star is where a group is joined. X5 = NC(=O)[C@H](CCCCNC(=O)CN1CCN(CC(=O)O)CCN(CC(=O)O)CCN(CC(=O)O)CC1)NC(=O)CCC(=O)NCCCOCCOCCOCCCN*; Propanoyl(3-(1-naphthyl)) = O=C(CCc1cccc2ccccc12)*; Trp(5-Cl) = N[C@@H](Cc1c[nH]c2ccc(Cl)cc12)C(=O)O; Propanoyl(3-(4-Cl-Ph)) = O=C(CCc1ccc(Cl)cc1)*; mXylylene = c1cc(C[*:1])cc(C[*:2])c1; Bta = N[C@@H](Cc1csc2ccccc12)C(=O)O; NMeE = CN[C@@H](CCC(=O)O)C(=O)O; Cha = N[C@@H](CC1CCCCC1)C(=O)O; Tle = CC(C)(C)[C@H](N)C(=O)O; X28 = O=C(CCc1ccc2ccccc2c1)*; Aib = CC(C)(N)C(=O)O
# Molecular target: T1, GIPR (CHO-K1-hGIPR cells) (Homo sapiens, UniProt P48546)
# T1 construct: host or cells: CHO-K1
# T1 sequence (P48546 22-466): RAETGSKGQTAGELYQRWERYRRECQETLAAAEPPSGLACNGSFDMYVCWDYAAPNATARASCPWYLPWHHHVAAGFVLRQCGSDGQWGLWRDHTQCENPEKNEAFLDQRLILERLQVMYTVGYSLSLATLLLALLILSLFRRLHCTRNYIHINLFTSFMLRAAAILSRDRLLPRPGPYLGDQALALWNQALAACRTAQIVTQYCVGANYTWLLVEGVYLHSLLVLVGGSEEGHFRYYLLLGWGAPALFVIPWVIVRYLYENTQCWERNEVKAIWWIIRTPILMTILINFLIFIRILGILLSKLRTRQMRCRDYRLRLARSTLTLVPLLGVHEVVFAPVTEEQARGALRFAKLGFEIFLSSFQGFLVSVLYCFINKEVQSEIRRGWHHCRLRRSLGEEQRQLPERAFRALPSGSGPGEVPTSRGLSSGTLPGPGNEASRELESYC
# Assay: FACS binding assay
# Details: competition with 20 nM GIP-057, 4° C. for 1 hour, read-out: pIC50 Category (converted)
# Method in brief: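 Peptide binding read by flow cytometry as APC-channel median fluorescence, fitted with a four-parameter logistic to yield EC50 or IC50. Cells were hGIPR-transfected CHO-K1 in PBS with 1% FCS, detected with 1 μg/mL APC-streptavidin, 30 min on ice.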
row,Compound,IC50
1,"CC[C@H](C)[C@@H]1NC(=O)[C@H](CC(C)C)NC(=O)C(C)(C)NC(=O)[C@@H](NC(=O)[C@H](CC(C)C)NC(=O)[C@H](CCC(=O)O)NC(=O)[C@@H]2CCCN2C(=O)[C@H](Cc2c[nH]c3ccccc23)NC(=O)[C@H](Cc2csc3ccccc23)NC(=O)[C@H](CC(=O)O)NC(C)=O)CSCc2cccc(c2)CSC[C@@H](C(=O)NCCCOCCOCCOCCCNC(=O)CCC(=O)N[C@@H](CCCCNC(=O)CN2CCN(CC(=O)O)CCN(CC(=O)O)CCN(CC(=O)O)CC2)C(N)=O)NC1=O [GIP-273, Ac-Asp-Bta-Trp-Pro-Glu-Leu-[Cys(3MeBn)-Aib-Leu-Ile-Cys]-Ttds-Lys(DOTA)-NH2] (Ac-D[Bta]WPELC[Aib]LIC-X5; linker 7-11 via mXylylene)",100 to 794 nM
2,"CC[C@H](C)[C@@H]1NC(=O)[C@H](CC(C)C)NC(=O)C(C)(C)NC(=O)[C@@H](NC(=O)[C@H](CC(C)C)NC(=O)[C@H](CCC(=O)O)N(C)C(=O)[C@@H]2CCCN2C(=O)[C@H](Cc2c[nH]c3ccccc23)NC(=O)[C@H](Cc2c[nH]c3ccccc23)NC(=O)[C@H](CC(=O)O)NC(C)=O)CSCc2cccc(c2)CSC[C@@H](C(=O)NCCCOCCOCCOCCCNC(=O)CCC(=O)N[C@@H](CCCCNC(=O)CN2CCN(CC(=O)O)CCN(CC(=O)O)CCN(CC(=O)O)CC2)C(N)=O)NC1=O [GIP-274, Ac-Asp-Trp-Trp-Pro-Nme-Leu-[Cys(3MeBn)-Aib-Leu-Ile-Cys]-Ttds-Lys(DOTA)-NH2] (Ac-DWWP[NMeE]LC[Aib]LIC-X5; linker 7-11 via mXylylene)",100 to 794 nM
3,"CC[C@H](C)[C@@H]1NC(=O)[C@H](CC(C)C)NC(=O)C(C)(C)NC(=O)[C@@H](NC(=O)[C@@H](NC(=O)[C@H](CCC(=O)O)NC(=O)[C@@H]2CCCN2C(=O)[C@H](Cc2c[nH]c3ccccc23)NC(=O)[C@H](Cc2c[nH]c3ccccc23)NC(=O)[C@H](CC(=O)O)NC(C)=O)C(C)(C)C)CSCc2cccc(c2)CSC[C@@H](C(=O)NCCCOCCOCCOCCCNC(=O)CCC(=O)N[C@@H](CCCCNC(=O)CN2CCN(CC(=O)O)CCN(CC(=O)O)CCN(CC(=O)O)CC2)C(N)=O)NC1=O [GIP-275, Ac-Asp-Trp-Trp-Pro-Glu-Tle-[Cys(3MeBn)-Aib-Leu-Ile-Cys]-Ttds-Lys(DOTA)-NH2] (Ac-DWWPE[Tle]C[Aib]LIC-X5; linker 7-11 via mXylylene)",100 to 794 nM
4,"CC[C@H](C)[C@@H]1NC(=O)[C@H](C(C)(C)C)NC(=O)C(C)(C)NC(=O)[C@@H](NC(=O)[C@H](CC(C)C)NC(=O)[C@H](CCC(=O)O)NC(=O)[C@@H]2CCCN2C(=O)[C@H](Cc2c[nH]c3ccccc23)NC(=O)[C@H](Cc2c[nH]c3ccccc23)NC(=O)[C@H](CC(=O)O)NC(C)=O)CSCc2cccc(c2)CSC[C@@H](C(=O)NCCCOCCOCCOCCCNC(=O)CCC(=O)N[C@@H](CCCCNC(=O)CN2CCN(CC(=O)O)CCN(CC(=O)O)CCN(CC(=O)O)CC2)C(N)=O)NC1=O [GIP-276, Ac-Asp-Trp-Trp-Pro-Glu-Leu-[Cys(3MeBn)-Aib-Tle-Ile-Cys]-Ttds-Lys(DOTA)-NH2] (Ac-DWWPELC[Aib][Tle]IC-X5; linker 7-11 via mXylylene)",100 to 794 nM
5,"CC[C@H](C)[C@@H]1NC(=O)[C@H](CC(C)C)NC(=O)C(C)(C)NC(=O)[C@@H](NC(=O)[C@H](CC(C)C)NC(=O)[C@H](CCC(=O)O)NC(=O)[C@@H]2CCCN2C(=O)[C@H](Cc2c[nH]c3ccccc23)NC(=O)[C@H](Cc2c[nH]c3ccc(Cl)cc23)NC(=O)[C@H](CC(=O)O)NC(C)=O)CSCc2cccc(c2)CSC[C@@H](C(=O)NCCCOCCOCCOCCCNC(=O)CCC(=O)N[C@@H](CCCCNC(=O)CN2CCN(CC(=O)O)CCN(CC(=O)O)CCN(CC(=O)O)CC2)C(N)=O)NC1=O [GIP-277, Ac-Asp-5Clw-Trp-Pro-Glu-Leu-[Cys(3MeBn)-Aib-Leu-Ile-Cys]-Ttds-Lys(DOTA)-NH2] (Ac-D[Trp(5-Cl)]WPELC[Aib]LIC-X5; linker 7-11 via mXylylene)",100 to 794 nM
6,"CC(=O)N[C@@H](CC(=O)O)C(=O)N[C@@H](Cc1c[nH]c2ccccc12)C(=O)N[C@@H](Cc1c[nH]c2ccccc12)C(=O)N1CCC[C@H]1C(=O)N[C@@H](CCC(=O)O)C(=O)N[C@@H](CC(C)C)C(=O)N[C@H]1CSCc2cccc(c2)CSC[C@@H](C(=O)NCCCOCCOCCOCCCNC(=O)CCC(=O)N[C@@H](CCCCNC(=O)CN2CCN(CC(=O)O)CCN(CC(=O)O)CCN(CC(=O)O)CC2)C(N)=O)NC(=O)[C@H](CC2CCCCC2)NC(=O)[C@H](CC(C)C)NC(=O)C(C)(C)NC1=O [GIP-278, Ac-Asp-Trp-Trp-Pro-Glu-Leu-[Cys(3MeBn)-Aib-Leu-Cha-Cys]-Ttds-Lys(DOTA)-NH2] (Ac-DWWPELC[Aib]L[Cha]C-X5; linker 7-11 via mXylylene)",100 to 794 nM
7,"CC[C@H](C)[C@@H]1NC(=O)[C@H](CC(C)C)NC(=O)C(C)(C)NC(=O)[C@@H](NC(=O)[C@@H](CC(C)C)NC(=O)[C@H](CCC(=O)O)NC(=O)[C@@H]2CCCN2C(=O)[C@H](Cc2c[nH]c3ccccc23)NC(=O)[C@H](Cc2c[nH]c3ccccc23)NC(=O)[C@H](CC(=O)O)NC(=O)CCc2ccc(Cl)cc2)CSCc2cccc(c2)CSC[C@@H](C(=O)NCCCOCCOCCOCCCNC(=O)CCC(=O)N[C@@H](CCCCNC(=O)CN2CCN(CC(=O)O)CCN(CC(=O)O)CCN(CC(=O)O)CC2)C(N)=O)NC1=O [GIP-279, 4ClPhp-Asp-Trp-Trp-Pro-Glu-leu-[Cys(3MeBn)-Aib-Leu-Ile-Cys]-Ttds-Lys(DOTA)-NH2] ({Propanoyl(3-(4-Cl-Ph))}-DWWPE[dL]C[Aib]LIC-X5; linker 7-11 via mXylylene)",100 to 794 nM
8,"CC[C@H](C)[C@@H]1NC(=O)[C@H](CC(C)C)NC(=O)C(C)(C)NC(=O)[C@@H](NC(=O)[C@@H](CC(C)C)NC(=O)[C@H](CCC(=O)O)NC(=O)[C@@H]2CCCN2C(=O)[C@H](Cc2c[nH]c3ccccc23)NC(=O)[C@H](Cc2c[nH]c3ccccc23)NC(=O)[C@H](CC(=O)O)NC(=O)CCc2cccc3ccccc23)CSCc2cccc(c2)CSC[C@@H](C(=O)NCCCOCCOCCOCCCNC(=O)CCC(=O)N[C@@H](CCCCNC(=O)CN2CCN(CC(=O)O)CCN(CC(=O)O)CCN(CC(=O)O)CC2)C(N)=O)NC1=O [GIP-280, Nph1p-Asp-Trp-Trp-Pro-Glu-leu-[Cys(3MeBn)-Aib-Leu-Ile-Cys]-Ttds-Lys(DOTA)-NH2] ({Propanoyl(3-(1-naphthyl))}-DWWPE[dL]C[Aib]LIC-X5; linker 7-11 via mXylylene)",100 to 794 nM
9,"CC[C@H](C)[C@@H]1NC(=O)[C@H](CC(C)C)NC(=O)C(C)(C)NC(=O)[C@@H](NC(=O)[C@@H](CC(C)C)NC(=O)[C@H](CCC(=O)O)NC(=O)[C@@H]2CCCN2C(=O)[C@H](Cc2c[nH]c3ccccc23)NC(=O)[C@H](Cc2c[nH]c3ccccc23)NC(=O)[C@H](CC(=O)O)NC(=O)CCc2ccc3ccccc3c2)CSCc2cccc(c2)CSC[C@@H](C(=O)NCCCOCCOCCOCCCNC(=O)CCC(=O)N[C@@H](CCCCNC(=O)CN2CCN(CC(=O)O)CCN(CC(=O)O)CCN(CC(=O)O)CC2)C(N)=O)NC1=O [GIP-281, Nph2p-Asp-Trp-Trp-Pro-Glu-leu-[Cys(3MeBn)-Aib-Leu-Ile-Cys]-Ttds-Lys(DOTA)-NH2] (X28-DWWPE[dL]C[Aib]LIC-X5; linker 7-11 via mXylylene)",100 to 794 nM
